Results on 4 molecules are retold here after article PMC8699261, “Structural Characterization of Rat Galectin-5, an N-Tailed Monomeric Proto-Type-like Galectin” (Biomolecules, 2021).

Several values for one entry are separate records, joined by “and”; a condition that tells them apart may be missing. Equal entries are not always repeated. Where two headings read alike, the source gives them in different places.

The target in experiment [1] is T1, rat galectin-5 (rGal-5) (Rattus norvegicus, UniProt P47967).
T1 construct: we used the full-length protein to obtain structural information on the N-terminal tail; made in house
T1 sequence (P47967 whole entry): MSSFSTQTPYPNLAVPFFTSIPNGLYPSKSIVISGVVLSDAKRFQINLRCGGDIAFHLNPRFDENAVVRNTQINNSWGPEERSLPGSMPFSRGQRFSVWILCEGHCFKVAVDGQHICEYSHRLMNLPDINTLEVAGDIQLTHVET
As to the kind of experiment: Isothermal titration calorimetry (ITC) of ligand binding to recombinant rGal-5. The protocol:
The spacered B (type 2) tetrasaccharide was synthesized as described previously. Titrations were monitored in a PEAQ-ITC calorimeter (Malvern, Westborough, MA, USA), using a galectin-containing solution of 250 µL in PBS (10 mM Na2HPO4, 2 mM KH2PO4, 137 mM NaCl and 3 mM KCl at pH 6.8) containing 10 mM β-mercaptoethanol and injections at 150 s intervals of 2 µL ligand-containing solution (up to adding 36.4 µL) at 25 °C (750 rpm), as described. The protein concentration was 125 μM, and the ligand concentration in the syringe was 2.5 mM. In each titration, a fitted offset parameter was applied to account for potential background. Data processing was performed using the MiroCal PEAQ-ITC Analysis software.

Experiment [2] has as its target T1, rat galectin-5 (rGal-5). The experiment in a line: Glycan array (609 compounds) tested with biotinylated rGal-5, Alexa555-streptavidin detection. Type of experiment: binding. The settings on record: 100 µg/mL biotinylated rGal-5; ranking in words. As to the method: The array consisted of 609 compounds covering glycans and polysaccharides printed onto commercial NHS-activated Slide H (Schott Nexterion, Jena, Germany), tested with 100 µg/mL biotinylated rGal-5 and involving Alexa555-labeled streptavidin (Thermo Fisher Scientific, Eugene, OR, USA) as second-step reagent for Innoscan 1100AL scanner-based (Innopsys, Carbonne, France) signal qualification, expressed in medium relative fluorescence units (RFU) and medium absolute deviation (MAD), as described previously. When the fluorescence intensity exceeded the background value by a factor of five, the respective signal was considered to be significant.

Setting [3] is: 25 °C, individual titration, protein 125 μM, ligand 2.5 mM in syringe, PBS pH 6.8, read-out: Kd.
The mark [4] stands for this setting: (summarises Table 2), read-out: dissociation constant.

For `CC(=O)N[C@H]1C(O)O[C@H](CO)[C@@H](O[C@@H]2O[C@H](CO)[C@H](O)[C@H](O)[C@H]2O)[C@@H]1O` (some centres unmarked) [LacNAc, N-acetyllactosamine], in experiment [1] (25 °C, individual titration), the Stoichiometry was 0.92 ± 0.01 and 0.94 ± 0.20; the ΔG0obs is -6.1 kcal/mol and -6.0 kcal/mol; the ΔH0obs was -10.0 ± 0.2 kcal/mol and -10.5 ± 2.6 kcal/mol; the “−TΔS0obs” value was 3.87 kcal/mol and 4.43 kcal/mol. Moreover, the Kd in experiment [1] (setting [3]) was 28.6 µM and 32.3 µM. In addition, the Kd in experiment [1] (setting [4]) is 30.5 ± 1.9 µM.
Consider `OC[C@H]1O[C@@H](O[C@H]2[C@H](O)[C@@H](O)C(O)O[C@@H]2CO)[C@H](O)[C@@H](O)[C@H]1O` (mixture of isomers) [Lactose, lactose], for which, in experiment [1] (25 °C, individual titration), the Stoichiometry was 0.95 ± 0.05 and 0.99 ± 0.06; the ΔG0obs is -5.35 kcal/mol and -5.22 kcal/mol; the ΔH0obs is -4.99 ± 0.08 kcal/mol and -5.03 ± 0.41 kcal/mol; the “−TΔS0obs” value was -0.36 kcal/mol and -0.18 kcal/mol. Further, in experiment [1] (setting [3]), the Kd was 121 µM and 151 µM. Also, in experiment [1] (setting [4]), the Kd amounted to 136 ± 16 µM.
As for “histo-blood-group B (type 2) tetrasaccharide [Tetrasacc haride]”, in experiment [1] (25 °C, individual titration), the Stoichiometry was 0.98 ± 0.01 and 0.94 ± 0.01; the ΔG0obs is -7.11 kcal/mol; the ΔH0obs was -5.74 ± 0.03 kcal/mol and -5.60 ± 0.03 kcal/mol; the “−TΔS0obs” value is -1.37 kcal/mol and -1.51 kcal/mol. Also, in experiment [1] (setting [3]), the Kd is 5 µM and 6.1 µM. For the same molecule, the Kd in experiment [1] (setting [4]) was found to be 5.5 ± 0.6 µM. Besides, the “signal intensity in glycan array” value in experiment [2] is listed as “frontrunners in terms of signal intensity”.
Regarding `CC(=O)N[C@H]1C(O)O[C@H](CO)[C@@H](O[C@@H]2O[C@H](CO)[C@H](O)[C@H](O[C@H]3O[C@H](CO)[C@H](O)[C@H](O)[C@H]3O)[C@H]2O)[C@@H]1O` (some centres unmarked), the “signal intensity in glycan array” value in experiment [2] is given as “frontrunners in terms of signal intensity”.
